Results: patent publication US20170197996A1, “Cholinesterase Inhibitors” (priority 2012, published 2017)

System: acetylcholinesterase
Type: in vivo, rat
Details: Trials C, D; 0.030 mg/Kg dose 10 min prior to tracer; FIG. 11, FIG. 12 vs FIG. 8

## CCOP(=O)(OCC)Oc1ccc([N+](=O)[O-])cc1 [paraoxon]
  reduction of tracer [^18F]-6 SUV radioactivity signals across all brain ROIs: significant reduction of SUV radioactivity signals
